System: patients with metastatic, chemo-naive, hormone-refractory prostate cancer (HRPC)
Assay: Phase I safety analysis: adverse events graded by CTCAE version 3.0
Format: in vivo, human
Conditions: for Dyspepsia: patients with drug-related AE / Dysphonia: patients with drug-related AE / Elevated ALT: patients with drug-related AE / Elevated AST: patients with drug-related AE / Elevated GGT: patients with drug-related AE / Elevated alkaline phosphatase: patients with drug-related AE / Epistasis: patients with drug-related AE / Headache: patients with drug-related AE / Hot flush: patients with drug-related AE / Mucosal inflammation: patients with drug-related AE / Muscle spasm: patients with drug-related AE / Nausea: patients with drug-related AE / Neuropathy: patients with drug-related AE / Pyrexia: patients with drug-related AE / Rash: patients with drug-related AE / Upper abdominal pain: patients with drug-related AE / Vomiting: patients with drug-related AE / Weight decrease: patients with drug-related AE / Ageusia: patients with drug-related AE / Alopecia: patients with drug-related AE / Anorexia: patients with drug-related AE / Asthenia: patients with drug-related AE / Constipation: patients with drug-related AE / Diarrhoea: patients with drug-related AE / Dysgeusia: patients with drug-related AE: all courses
Description: On days 2–21 (21-day cycle), patients took an oral dose of BIBF 1120 twice daily. Patients were instructed to swallow BIBF 1120 with water at the same time every day to ensure a dose interval of ∼12 h. On day 2 of treatment cycles (TCs) 1 and 2, patients only took the morning dose of BIBF 1120, omitting the evening dose to allow PK evaluation. All patients were premedicated with oral corticosteroids (dexamethasone 8 mg per os or methylprednisolone 32 mg per os, at 12 h and 1 h before docetaxel infusion) and subsequently took 5 mg prednisone oral BID throughout the trial. On day 1 of each TC, patients received an IV infusion of 75 mg m^−2 docetaxel administered over 1 h.
All patients who received at least one dose of BIBF 1120 or docetaxel were assessed during the safety analysis. Intensity of AEs was graded according to Common Terminology Criteria for Adverse Events (CTCAE) version 3.0. Objective response was defined as a PSA decline ⩾50% from the baseline value over two consecutive courses and/or tumour response according to RECIST criteria ([Therasse et al, 2000]).

[1] = 200 mg BID (n=3) + docetaxel/prednisone, all grades
[2] = 250 mg BID (n=12) + docetaxel/prednisone, Gr 3/4
[3] = 250 mg BID (n=12) + docetaxel/prednisone, all grades
[4] = Total, all dose levels (n=21) + docetaxel/prednisone, Gr 3/4
[5] = Total, all dose levels (n=21) + docetaxel/prednisone, all grades
[6] = during TC 1, all dose levels 100–250 mg BID + docetaxel/prednisone
[7] = during TC 1, all dose levels + docetaxel/prednisone

COC(=O)c1ccc2c(c1)NC(=O)/C2=C(\Nc1ccc(N(C)C(=O)CN2CCN(C)CC2)cc1)c1ccccc1 [BIBF 1120]
One: Patients with grade 3 diarrhoea (200 mg BID + docetaxel/prednisone, TC 1)
23.8%: Alopecia, frequency of AE irrespective of relatedness (all TCs and doses) | Alopecia, frequency of drug-related AE [6] | Patients with AE severity grade 3 [7]
85.7%: Diarrhoea, frequency of AE irrespective of relatedness (all TCs and doses)
8: Diarrhoea: patients with drug-related AE [3]
9: Nausea: patients with drug-related AE [5]
10: Asthenia: patients with drug-related AE [3]
six: Patients with CTCAE grade 3/4 liver enzyme (transaminase) elevations, of twelve (250 mg BID, any TC, based on laboratory values)
13: Diarrhoea: patients with drug-related AE [5]
61.9%: Asthenia, frequency of drug-related AE [6]
28.6%: Nausea, frequency of AE irrespective of relatedness (all TCs and doses) | Nausea, frequency of drug-related AE [6] | Vomiting, frequency of drug-related AE [6] | Patients with AE severity grade 1 [7] | Patients with AE severity grade 2 [7]
14: Asthenia: patients with drug-related AE [5]
2: Dysphonia: patients with drug-related AE [1] | Nausea: patients with drug-related AE [1] | Vomiting: patients with drug-related AE [1] | Elevated ALT: patients with drug-related AE [2] | Elevated AST: patients with drug-related AE [2] | Elevated GGT: patients with drug-related AE [2] | Constipation: patients with drug-related AE [3] | Dysgeusia: patients with drug-related AE [3] | Elevated alkaline phosphatase: patients with drug-related AE [3] | Mucosal inflammation: patients with drug-related AE [3] | Muscle spasm: patients with drug-related AE [3] | Rash: patients with drug-related AE [3] | Diarrhoea: patients with drug-related AE [4] | Elevated ALT: patients with drug-related AE [4] | Elevated AST: patients with drug-related AE [4] | Elevated GGT: patients with drug-related AE [4] | Ageusia: patients with drug-related AE [5] | Dyspepsia: patients with drug-related AE [5] | Elevated alkaline phosphatase: patients with drug-related AE [5] | Headache: patients with drug-related AE [5] | Hot flush: patients with drug-related AE [5] | Mucosal inflammation: patients with drug-related AE [5] | Muscle spasm: patients with drug-related AE [5] | Neuropathy: patients with drug-related AE [5] | Pyrexia: patients with drug-related AE [5] | Rash: patients with drug-related AE [5] | Weight decrease: patients with drug-related AE [5]
14.3%: Patients with AE severity grade 4 (neutropenia only, considered related to docetaxel) [7]
4: Alopecia: patients with drug-related AE [3] | Elevated ALT: patients with drug-related AE [3] | Alopecia: patients with drug-related AE [5] | Dysphonia: patients with drug-related AE [5] | Elevated ALT: patients with drug-related AE [5] | Upper abdominal pain: patients with drug-related AE [5]
6: Anorexia: patients with drug-related AE [5]
0: Dyspepsia: patients with drug-related AE [1] | Elevated ALT: patients with drug-related AE [1] | Elevated AST: patients with drug-related AE [1] | Elevated GGT: patients with drug-related AE [1] | Elevated alkaline phosphatase: patients with drug-related AE [1] | Headache: patients with drug-related AE [1] | Mucosal inflammation: patients with drug-related AE [1] | Muscle spasm: patients with drug-related AE [1] | Neuropathy: patients with drug-related AE [1] | Pyrexia: patients with drug-related AE [1] | Rash: patients with drug-related AE [1] | Upper abdominal pain: patients with drug-related AE [1] | Weight decrease: patients with drug-related AE [1] | Ageusia: patients with drug-related AE [2] | Alopecia: patients with drug-related AE [2] | Anorexia: patients with drug-related AE [2] | Asthenia: patients with drug-related AE [2] | Constipation: patients with drug-related AE [2] | Diarrhoea: patients with drug-related AE [2] | Dysgeusia: patients with drug-related AE [2] | Dyspepsia: patients with drug-related AE [2] | Dysphonia: patients with drug-related AE [2] | Elevated alkaline phosphatase: patients with drug-related AE [2] | Epistasis: patients with drug-related AE [2] | Headache: patients with drug-related AE [2] | Hot flush: patients with drug-related AE [2] | Mucosal inflammation: patients with drug-related AE [2] | Muscle spasm: patients with drug-related AE [2] | Nausea: patients with drug-related AE [2] | Neuropathy: patients with drug-related AE [2] | Pyrexia: patients with drug-related AE [2] | Rash: patients with drug-related AE [2] | Upper abdominal pain: patients with drug-related AE [2] | Vomiting: patients with drug-related AE [2] | Weight decrease: patients with drug-related AE [2] | Headache: patients with drug-related AE [3] | Ageusia: patients with drug-related AE [4] | Alopecia: patients with drug-related AE [4] | Anorexia: patients with drug-related AE [4] | Asthenia: patients with drug-related AE [4] | Constipation: patients with drug-related AE [4] | Dysgeusia: patients with drug-related AE [4] | Dyspepsia: patients with drug-related AE [4] | Dysphonia: patients with drug-related AE [4] | Elevated alkaline phosphatase: patients with drug-related AE [4] | Epistasis: patients with drug-related AE [4] | Headache: patients with drug-related AE [4] | Hot flush: patients with drug-related AE [4] | Mucosal inflammation: patients with drug-related AE [4] | Muscle spasm: patients with drug-related AE [4] | Nausea: patients with drug-related AE [4] | Neuropathy: patients with drug-related AE [4] | Pyrexia: patients with drug-related AE [4] | Rash: patients with drug-related AE [4] | Upper abdominal pain: patients with drug-related AE [4] | Vomiting: patients with drug-related AE [4] | Weight decrease: patients with drug-related AE [4]
1: Epistasis: patients with drug-related AE [1] | Hot flush: patients with drug-related AE [1] | Ageusia: patients with drug-related AE [3] | Dyspepsia: patients with drug-related AE [3] | Dysphonia: patients with drug-related AE [3] | Hot flush: patients with drug-related AE [3] | Neuropathy: patients with drug-related AE [3] | Pyrexia: patients with drug-related AE [3] | Weight decrease: patients with drug-related AE [3]
50%: Patients with CTCAE grade 3/4 increases in hepatic enzymes (250 mg BID, entire treatment period)
95.2%: Asthenia, frequency of AE irrespective of relatedness (all TCs and doses)
5: Nausea: patients with drug-related AE [3] | Epistasis: patients with drug-related AE [5] | Vomiting: patients with drug-related AE [5]
3: Anorexia: patients with drug-related AE [3] | Elevated AST: patients with drug-related AE [3] | Elevated GGT: patients with drug-related AE [3] | Epistasis: patients with drug-related AE [3] | Upper abdominal pain: patients with drug-related AE [3] | Vomiting: patients with drug-related AE [3] | Constipation: patients with drug-related AE [5] | Dysgeusia: patients with drug-related AE [5] | Elevated AST: patients with drug-related AE [5] | Elevated GGT: patients with drug-related AE [5]

— PMC3242598, “Phase I study of BIBF 1120 with docetaxel and prednisone in metastatic chemo-naive hormone-refractory prostate cancer patients” (British Journal of Cancer, 2011)
